Series [1] is described as follows: Hepatocyte stability (mouse). In kind it is in vitro ADME. The settings on record: mouse, cryopreserved pooled hepatocytes in suspension, test compound 3 μM, 60 min, read-out: Mouse heps Clint. As to the method: (iii) Hepatocyte Stability (Human, Mouse, Rat or Dog)
Test compound (3 μM) is incubated with cryopreserved hepatocytes in suspension. Samples are removed at 6 time points over the course of a 60 min experiment and test compound is analysed by LC-MS/MS. An intrinsic clearance value (CLint) with standard error and half-life (t %) are calculated. Cryopreserved pooled hepatocytes are stored in liquid nitrogen prior to use. […] The final incubation volume is 500 μL. A control incubation is included for each compound tested where lysed cells are added instead of viable cells. Two control compounds are included with each species.
The reactions are stopped by transferring 50 μL of incubate to 100 μL methanol containing internal standard at the appropriate time points. The control (lysed cells) is incubated for 60 min only. The termination plates are centrifuged at 2500 rpm at 4° C. for 30 min to precipitate the protein. Following protein precipitation, the sample supernatants are combined in cassettes of up to 4 compounds and analysed using generic LC-MS/MS conditions. From a plot of In peak area ratio (compound peak area/internal standard peak area) against time, the gradient of the line is determined. Subsequently, half-life (t %) and intrinsic clearance (CLint) are calculated using the equations below: […]

The target of series [2] is T1, dopamine uptake transporter (rat DAT) (Rattus norvegicus, UniProt P23977).
T1 construct: is determined in rat striatum synaptosomes following [^3H]dopamine scintillation counting; from tissue; host or cells: rat striatum synaptosomes
The experiment in a line: Dopamine transporter uptake assay. In kind it is biochemical. The settings on record: rat striatum synaptosomes, [3H]dopamine.

The target of series [3] is hGPR88 receptor (Homo sapiens, UniProt Q9GZN0). As to the kind of experiment: hGPR88-HEK cAMP accumulation assay. The settings on record: GRP88 agonist activity (EC50), HEK-293 cells expressing human recombinant GPR88, forskolin 200 nM, High/Medium/Low bands. A general note: cAMP levels reflect the balance of adenylyl cyclase and phosphodiesterase activity.
Protocol: Biological Assay 1: hGPR88-HEK cAMP Accumulation Assay
Cryopreserved vials of HEK-293 cells expressing human recombinant GPR88 receptor are re-suspended in KRH assay buffer and 5 μl of cell solution is suspended in test wells at a seeding density of 2500±500 cells per well using the multidrop to provide a final reaction volume of 10 μl containing 0.5% DMSO. Assay plate is incubated for 30 min at room temperature and the reaction is terminated by addition of 5 μl of each of the cAMP detection reagents of the cAMP Gi kit (Cisbio Bioassays, 62AM9PEJ), diluted in cell lysis buffer, to each well using the multidrop in the following order: first the cAMP-d2 conjugate, then the anti-cAMP cryptate conjugate. […] Raw counts were converted to cAMP concentrations via a standard curve before EC50 and Emax determination. Data is expressed as % decrease in forskolin stimulated cAMP compared to cells treated with vehicle alone in the same buffer and on the same plate.

A value given as a limit tells only on which side of the number the result lay.

Chain of hGPR88 receptor (Q9GZN0 whole entry): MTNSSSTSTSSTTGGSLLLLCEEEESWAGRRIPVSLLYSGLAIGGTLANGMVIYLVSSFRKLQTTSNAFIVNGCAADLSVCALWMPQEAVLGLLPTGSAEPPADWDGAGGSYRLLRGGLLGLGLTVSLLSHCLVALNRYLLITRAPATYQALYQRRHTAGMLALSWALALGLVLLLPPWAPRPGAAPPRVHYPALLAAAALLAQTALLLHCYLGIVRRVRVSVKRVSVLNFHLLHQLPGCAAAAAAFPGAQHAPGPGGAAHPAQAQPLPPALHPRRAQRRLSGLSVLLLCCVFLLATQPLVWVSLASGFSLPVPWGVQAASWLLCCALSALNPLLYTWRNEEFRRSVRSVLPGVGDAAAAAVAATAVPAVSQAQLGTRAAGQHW
T1 sequence (P23977 whole entry): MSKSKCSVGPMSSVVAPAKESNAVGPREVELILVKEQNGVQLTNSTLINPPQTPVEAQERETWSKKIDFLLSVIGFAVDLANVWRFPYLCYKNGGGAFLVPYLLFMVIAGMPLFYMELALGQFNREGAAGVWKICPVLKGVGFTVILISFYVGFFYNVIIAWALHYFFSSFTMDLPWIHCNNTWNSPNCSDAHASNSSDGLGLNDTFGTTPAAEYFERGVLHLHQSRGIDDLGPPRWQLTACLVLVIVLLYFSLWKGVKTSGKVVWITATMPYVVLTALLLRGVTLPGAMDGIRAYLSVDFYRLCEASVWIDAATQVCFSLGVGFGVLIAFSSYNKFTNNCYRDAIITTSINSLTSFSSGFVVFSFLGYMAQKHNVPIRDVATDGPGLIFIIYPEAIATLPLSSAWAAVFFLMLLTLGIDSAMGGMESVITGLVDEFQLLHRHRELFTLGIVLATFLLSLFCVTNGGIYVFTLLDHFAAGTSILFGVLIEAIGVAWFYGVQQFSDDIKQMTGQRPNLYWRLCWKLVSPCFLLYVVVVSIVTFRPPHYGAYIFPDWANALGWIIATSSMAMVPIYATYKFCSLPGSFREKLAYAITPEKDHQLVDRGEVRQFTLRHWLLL

Consider `COCc1ccc(-c2ccc(NC(=O)C3CC3c3ccccn3)cc2)cc1` (racemic) [Example 1, (rac-trans)-N-(4′-(methoxymethyl)-[1,1′-biphenyl]-4-yl)-2-(pyridin-2-yl)cyclo propane-1-carboxamide], for which the hepatocyte CLint at 3 μM in series [1] was found to be 65 µL/min/1e6 cells. In addition, the “Inhibition of dopamine uptake transporter (% inhibition at 10 μM compound)” value (shortened to “Inhibition … (% inhibition at 10 μM compound)”) in series [2] (10 µM) is listed as 11 % inhibition. For the same compound, the EC50 in series [3] was under 1000 nM.

Consider `COCc1ccc(C23CC(NC(=O)C4CC4c4ccccn4)(C2)C3)cc1` (racemic) [Example 111, (rac-trans)-N-(3-(4-(methoxymethyl)phenyl)bicyclo[1.1.1]pentan-1-yl)-2-(pyridin-2-yl)cyclopropane-1-carboxamide], for which the hepatocyte CLint at 3 μM in series [1] was 22 µL/min/1e6 cells. The “Inhibition … (% inhibition at 10 μM compound)” value in series [2] stood at 14 % inhibition. Besides, in series [3], the EC50 lay within 1000 to 5000 nM.

As for `COCc1ccc(-c2ccc3c(c2)CCCN3C(=O)C(C)(C)Oc2ccc(F)cc2)cc1` [Example 31, 2-(4-fluorophenoxy)-1-(6-(4-(methoxymethyl)phenyl)-3,4-dihydroquinolin-1(2H)-yl)-2-methylpropan-1-one], in series [1], the hepatocyte CLint at 3 μM came out at 76 µL/min/1e6 cells. Further, in series [2], the “Inhibition … (% inhibition at 10 μM compound)” value is 52 % inhibition. For the same compound, in series [3], the concentration giving a half-maximal response (EC50) is under 1000 nM.

Usually EC50 stands for the midpoint of the concentration-response curve.
